Test results from paper PMC10057332, “Anticancer and Targeting Activity of Phytopharmaceutical Structural Analogs of a Natural Peptide from Trichoderma longibrachiatum and Related Peptide-Decorated Gold Nanoparticles” (International Journal of Molecular Sciences, 2023).
pIC50: −log10 of the molar value. Several values for one entry are separate records, joined by “and”; a condition that tells them apart may be missing. Identical values can stand only once. Residues, ends and D or L forms follow the SMILES beside them.

What was measured:
[1] = tested on: MDA-MB-231 cells; assay: MTS cytotoxicity in MDA-MB-231 triple negative breast cancer cells; type: cell-based, human; settings: for pIC50: cells exposed to peptaibols for 24 h, MTS assay; for killing activity in cancer cells: 10 µM peptide
Description: (§1) Cells were incubated with increasing concentrations of peptides for 24 h before assessing cell viability with MTS assay in order to create dose/response curves (Figure 4) and calculate the half maximal inhibitory concentration (IC50) values for each peptaibol (Table 3). For convenience, peptides have been subdivided based on their C-terminal substituents, i.e., leucinol (lol) or amide (-NH2).
(§2) The cytotoxicity of peptides and free Api8- and Leu4-decorated GNPs was assessed with the MTS assay (CellTiter 96® AQueous One Solution Cell Proliferation Assay, Promega, Milan, Italy) in cancer MDA-MB-231 and normal MCF-10A cells exposed to increasing concentrations of peptaibols/GNPs for 24 h. Cells (8 × 10^3 cells/well for MDA-MB-231, 6 × 10^3 cells/well for MCF-10A) were seeded in 96-well plates, and after 24 h the medium was replaced with a fresh one containing peptaibols/GNPs. For MTS assay, the medium was replaced with 100 μL of serum-free medium and 20 μL of the CellTiter 96® reagent. After 60–90 min, the absorbance at 492 nm was measured with a Multiskan Go (Thermo Fischer Scientific, Carlsbad, CA, USA) plate reader and cell viability was expressed as a function of absorbance relative to that of control cells (considered as 100% viability). IC50 values for each peptaibol treatment were extrapolated from the relative dose–response curves obtained with the software GraphPad Prism 9.5.

[2] = tested on: MCF-10A cells; assay: MTS cytotoxicity in normal epithelial breast MCF-10A cells; type: cell-based, human; settings: for pIC50: cells exposed to peptaibols for 24 h, MTS assay; for effect on viability of MCF-10A cells: peptide concentration range tested, 24 h, MTS
Description: as §1, §2

[3] = MCF-10A cells, 1 h at 37 °C, CD at 25 °C
Description: The CD profile of Api8-NH2 and Leu4-NH2 was also acquired in the presence of cells (cell line MCF-10A) (Figure 1). This study also provided information on the stability of the peptides in the biological environment [63].
Figure 1 CD profiles of Leu4-NH2 and Api8-NH2 acquired at 25 °C in the presence of MCF-10A epithelial breast cells. (Peptide concentrations: Api8, 5 × 10^−5 M; Leu4, 1 × 10^−5 M).
The CD spectra were obtained on a Jasco (Tokyo, Japan) J-1500 spectropolarimeter. Fused quartz cells (Hellma, Mühlheim, Germany) of 1 mm path length were used. The values are expressed in terms of [θ]T, total molar ellipticity (deg∙cm^2∙dmol^−1). […] The CD measurements in cells were performed as follows: 1 × 10^6 cells were harvested, washed twice in PBS and incubated in the same buffer with peptides (concentrations: Api8, 5 × 10^−5 M; Leu4, 1 × 10^−5 M) for 1 h at 37°C in a rotating mixer before recording the CD spectra.

[4] = tested on: MDA-MB-231 with respect to MCF-10A cells; assay: Flow cytometry uptake of FITC-conjugated peptaibols; type: cell-based, human; settings: highest concentration tested, 24 h incubation
Description: For this study, we decided to focus our attention on the unique, noncytotoxic, yet membrane-active peptides Leu4-NH2 and Api8-NH2 to study them as potential cancer-targeting agents. […] As reference, K6-NH2 internalization was measured as well, since for this specific peptide, previous studies already reported an increased uptake in tumor cells (HDLM-2 and A2780 tumor cell lines) with respect to normal healthy cells, such as peripheral blood mononuclear cells (PBMCs) or fibroblasts.
Figure 5 Flow cytometry measurements of FITC-conjugated peptaibols in MDA-MB-231 (a) and MCF-10 (b) cells after a 24 h incubation period.
Flow cytometry and peptides conjugated with FITC, namely Api8-FITC and Leu4-FITC, were used to assess the capacity of peptaibols to be internalized by breast cancer cells, Briefly, 8 × 10^4 MDA-MB-231 and MCF-10A cells/well were grown in 24-well plates for 24 h and then incubated for 24 h with 5 μM peptaibols. […] Those washings both before cell detachment from plates and after cell recovery and centrifugation removed any peptides not strongly associated with cell plasma membranes, assuring FITC signals measured by flow cytometry were referred exclusively to internalized peptides. Cells were centrifuged and resuspended in Versene before measuring FITC fluorescence using a BD Fortessa^TM X-20 flow cytometer (Becton Dickinson, San Jose, CA, USA). […]

Compound	pIC50 [1]	effect on viability of MDA-MB-231 cells ([1]; peptide concentration range tested, 24 h, MTS)	pIC50 [2]	effect on viability of MCF-10A cells [2]	stability in the presence of cells (CD) [3]	killing activity in cancer cells ([1]; 24 h, MTS)	internalization in MDA-MB-231 with respect to MCF-10A cells [4]
CCCCCCCC(=O)NC(C)(C)C(=O)NCC(=O)N[C@@H](CC(C)C)C(=O)NC(C)(C)C(=O)NCC(=O)NCC(=O)N[C@@H](CC(C)C)C(=O)NC1(C(=O)NCC(=O)N[C@H](C(=O)N[C@@H](CC(C)C)C(N)=O)[C@@H](C)CC)CCNCC1 [Api8-NH2, Oct-Aib^1-Gly-Leu-Aib^4-Gly-Gly-Leu-Api^8-Gly-Ile-Leu^11-NH2] (HELM PEPTIDE1{[CCCCCCCC(=O)[*:2]].[Aib].G.L.[Aib].G.G.L.[O=C(C1(N[*:1])CCNCC1)[*:2]].G.I.L.[am]}$$$$V2.0)	< 4.70	did not significantly affect the viability	< 4.70	did not significantly affect the viability	stability of the peptides in the presence of cells		
CCCCCCCC(=O)NC(C)(C)C(=O)N[C@@H](CCCCN)C(=O)N[C@@H](CC(C)C)C(=O)NC(C)(C)C(=O)NCC(=O)NCC(=O)N[C@@H](CC(C)C)C(=O)NC(C)(C)C(=O)NCC(=O)N[C@H](C(=O)N[C@@H](CC(C)C)C(N)=O)[C@@H](C)CC [K2-NH2, Oct-Aib^1-Lys-Leu-Aib^4-Gly-Gly-Leu-Aib^8-Gly-Ile-Leu^11-NH2] (HELM PEPTIDE1{[CCCCCCCC(=O)[*:2]].[Aib].K.L.[Aib].G.G.L.[Aib].G.I.L.[am]}$$$$V2.0)	5.05		4.77			about 90%	
CCCCCCCC(=O)NC(C)(C)C(=O)N[C@@H](CCCCN)C(=O)N[C@@H](CC(C)C)C(=O)NC(C)(C)C(=O)N[C@@H](CCCCN)C(=O)NCC(=O)N[C@@H](CC(C)C)C(=O)NC(C)(C)C(=O)NCC(=O)N[C@H](C(=O)N[C@H](CO)CC(C)C)[C@@H](C)CC [K25-Lol, Oct-Aib^1-Lys-Leu-Aib^4-Lys-Gly-Leu-Aib^8-Gly-Ile-Lol^11] (HELM PEPTIDE1{[CCCCCCCC(=O)[*:2]].[Aib].K.L.[Aib].K.G.L.[Aib].G.I.[CC(C)C[C@@H](CO)N[*:1]]}$$$$V2.0)	5.05		4.80			~60%	
CCCCCCCC(=O)NC(C)(C)C(=O)NCC(=O)N[C@@H](CC(C)C)C(=O)NC(C)(C)C(=O)N[C@@H](CCCCN)C(=O)N[C@@H](CCCCN)C(=O)N[C@@H](CC(C)C)C(=O)NC(C)(C)C(=O)NCC(=O)N[C@H](C(=O)N[C@H](CO)CC(C)C)[C@@H](C)CC [K56-Lol, Oct-Aib^1-Gly-Leu-Aib^4-Lys-Lys-Leu-Aib^8-Gly-Ile-Lol^11]	4.92		4.74			~20%	
CCCCCCCC(=O)NC(C)(C)C(=O)N[C@@H](CCCCN)C(=O)N[C@@H](CC(C)C)C(=O)NC(C)(C)C(=O)N[C@@H](CCCCN)C(=O)NCC(=O)N[C@@H](CC(C)C)C(=O)NC(C)(C)C(=O)N[C@@H](CCCCN)C(=O)N[C@H](C(=O)N[C@H](CO)CC(C)C)[C@@H](C)CC [K259-Lol, Oct-Aib^1-Lys-Leu-Aib^4-Lys-Gly-Leu-Aib^8-Lys-Ile-Lol^11] (HELM PEPTIDE1{[CCCCCCCC(=O)[*:2]].[Aib].K.L.[Aib].K.G.L.[Aib].K.I.[CC(C)C[C@@H](CO)N[*:1]]}$$$$V2.0)	5.00		4.82			~60%	
CCCCCCCC(=O)NC(C)(C)C(=O)N[C@@H](CCCCN)C(=O)N[C@@H](CC(C)C)C(=O)NC(C)(C)C(=O)N[C@@H](CCCCN)C(=O)NCC(=O)N[C@@H](CC(C)C)C(=O)NC(C)(C)C(=O)N[C@@H](CCCCN)C(=O)N[C@H](C(=O)N[C@@H](CC(C)C)C(N)=O)[C@@H](C)CC [K259-NH2, Oct-Aib^1-Lys-Leu-Aib^4-Lys-Gly-Leu-Aib^8-Lys-Ile-Leu^11-NH2] (HELM PEPTIDE1{[CCCCCCCC(=O)[*:2]].[Aib].K.L.[Aib].K.G.L.[Aib].K.I.L.[am]}$$$$V2.0)	~4.89 and 4.89		4.77				
CCCCCCCC(=O)NC(C)(C)C(=O)N[C@@H](CCCCN)C(=O)N[C@@H](CC(C)C)C(=O)NC(C)(C)C(=O)N[C@@H](CCCCN)C(=O)N[C@@H](CCCCN)C(=O)N[C@@H](CC(C)C)C(=O)NC(C)(C)C(=O)N[C@@H](CCCCN)C(=O)N[C@H](C(=O)N[C@H](CO)CC(C)C)[C@@H](C)CC [K2569-Lol, Oct-Aib^1-Lys-Leu-Aib^4-Lys-Lys-Leu-Aib^8-Lys-Ile-Lol^11] (HELM PEPTIDE1{[CCCCCCCC(=O)[*:2]].[Aib].K.L.[Aib].K.K.L.[Aib].K.I.[CC(C)C[C@@H](CO)N[*:1]]}$$$$V2.0)	4.92		4.85			~30%	
CCCCCCCC(=O)NC(C)(C)C(=O)NCC(=O)N[C@@H](CC(C)C)C(=O)N[C@@H](CC(C)C)C(=O)NCC(=O)NCC(=O)N[C@@H](CC(C)C)C(=O)NC(C)(C)C(=O)NCC(=O)N[C@H](C(=O)N[C@H](CO)CC(C)C)[C@@H](C)CC [Leu4-Lol, reference compound] (HELM PEPTIDE1{[CCCCCCCC(=O)[*:2]].[Aib].G.L.L.G.G.L.[Aib].G.I.[CC(C)C[C@@H](CO)N[*:1]]}$$$$V2.0)	< 4.70		< 4.70	did not significantly affect the viability			
CCCCCCCC(=O)NC(C)(C)C(=O)NCC(=O)N[C@@H](CC(C)C)C(=O)N[C@@H](CC(C)C)C(=O)NCC(=O)NCC(=O)N[C@@H](CC(C)C)C(=O)NC(C)(C)C(=O)NCC(=O)N[C@H](C(=O)N[C@@H](CC(C)C)C(N)=O)[C@@H](C)CC [Leu4-NH2, Oct-Aib^1-Gly-Leu-Leu^4-Gly-Gly-Leu-Aib^8-Gly-Ile-Leu^11-NH2] (HELM PEPTIDE1{[CCCCCCCC(=O)[*:2]].[Aib].G.L.L.G.G.L.[Aib].G.I.L.[am]}$$$$V2.0)	< 4.70		< 4.70	did not significantly affect the viability	stability of the peptides in the presence of cells		
Oct-Aib^1-Gly-Leu-Aib^4-Gly-Gly-Leu-Api^8-Gly-Ile-Leu^11-NH-(CH2)2-NH-FITC [Api8-FITC]							~3 folds
Oct-Aib^1-Gly-Leu-Leu^4-Gly-Gly-Leu-Aib^8-Gly-Ile-Leu^11-NH-(CH2)2-NH-FITC [Leu4-FITC]							about 5 folds
